From a melting point compilation (Tetko et al.; mined from patent text by program, amines drawn as free bases though some values may be those of a salt)

SMILES | melting point
O=C(O)CCc1cn(Cc2ccc(OCc3ccc4ccccc4n3)cc2)nc1-c1ccccc1 | 147 to 148 °C
COc1ccc(Cl)c(Oc2c(C=O)nc(N3CCOCC3)nc2NS(=O)(=O)c2ccc(C(C)(C)C)cc2)c1 | 235 to 236 °C
CON1C(C)(C)CC(OC(=O)NNC(=O)OC2CC(C)(C)N(OC)C(C)(C)C2)CC1(C)C | 147 to 149 °C
O=c1c2cccnc2c(-c2ccccc2)cn1Cc1ccccc1 | 166 to 167 °C
O=C(O)CCC(=O)c1ccc(-c2cccc(F)c2)cc1 | 153 to 155 °C
Cc1ccc(-c2csc(-c3cccc(C(=O)O)c3)n2)cc1C | 235 to 236 °C
COC(=O)c1cc2c3c(cc([N+](=O)[O-])c2[nH]1)N(C(=O)c1cc2cc(OC)c(OC)c(OC)c2[nH]1)CC3CCl (stereo not drawn) | 246 to 248 °C
O=C(c1ccc(Cl)c(Cl)c1)N1CCCC(c2cccs2)=N1 | 124 to 125 °C
CC(=O)c1nc2cc(C)c(F)cc2s1 | 152 to 153 °C
OCc1ccc(Br)nc1 | 49 to 51 °C
Nc1c(F)c(N2CCC(c3cccnc3)C2)c(F)c2c1c(=O)c(C(=O)O)cn2C1CC1 (stereo not drawn) | 250 to 252 °C
CC(C)(C)OC(=O)Nc1cccc(Cn2nc(C(=O)O)c3c2-c2ccc(OCc4cncnc4)cc2CC3)c1 | 226 °C
CCOC(=O)c1cnn(C)c1C(=O)Nc1ccc2nc(N3CCOCC3)nn2c1 | 234 °C
CN1C(O)=C(C(=O)Nc2ccc(Cl)cc2)c2cscc2S1(=O)=O | 154 to 156 °C
CCc1ccc(-c2cc3c(O)cccc3o2)s1 | 87 to 90 °C
CCOc1cc2c(cc1OCC)C(=C(C#N)SCC(O)CN1CCOCC1)NCC2 (stereo not drawn) | 97 °C
c1ccc(C2Nc3ccccc3N3CCc4cccc2c43)cc1 (stereo not drawn) | 161 to 164 °C
O=c1cc2c(nn1-c1ccc(Cl)cc1)-c1cc(Br)sc1CCC2 | 143 to 144 °C
Cc1nccn1CC1CCC(Nc2ccccc2I)=CC1=O (stereo not drawn) | 88 to 100 °C
CCn1nc(-c2ccccc2)c(C(C)=O)c(Nc2cccc(C(=O)O)c2Cl)c1=O | 255 to 256 °C
CN1CCN(c2cc(Cl)cc3c2c(=O)n(Cc2ccc(N)cc2)c(=O)n3Cc2ccccc2)CC1 | 93 to 96 °C
CCOc1ccc(Oc2ccc(OCc3cc(F)ccc3F)cc2)c(N)c1 | 72 to 73.5 °C
CCN(CC)CCNC(=O)c1cc(Cl)c(N)cc1OCC(=O)N1CCCC1 | 160 to 162 °C
Cc1cc(C=O)ccc1C(N)=O | 119 to 121 °C
CC(C)[Si](C)(C)CCCSCCNC(=O)n1cc(F)c(=O)[nH]c1=O | 113 to 114 °C

SMILES | melting point
CC(C)(C)OC(=O)[C@@H](CCc1ccc([N+](=O)[O-])cc1)OS(=O)(=O)c1ccc([N+](=O)[O-])cc1 | 97 to 98 °C
O=C(O)[C@H](Cc1ccccc1)NS(=O)(=O)c1ccccc1 | 150 to 152 °C
Cc1cc(C)c2c(=O)c([N+](=O)[O-])coc2c1 | 120 to 125 °C
COc1ccc(-n2nc(C#N)cc2-c2ccc(S(C)(=O)=O)cc2)cc1Cl | 201 to 203 °C
CCC(N)=C(C(C)=O)C(=O)N(CCN(C)C)c1cccc(F)c1 | 96 to 97 °C
COc1ccc(C2=CCN(Cc3n[nH]c4ccccc34)CC2)cc1 | 157 to 159 °C
CC(C)(C)OC(=O)NCC1=C(CC(=O)O)CC=CC1 | 183 °C
CCOC(=O)C(C)(C)Oc1ccc(CNc2ccc(Cl)cc2)cc1OC | 73 to 74 °C
FC(F)(F)c1ccc(-c2cc(Oc3cccc4sccc34)ncn2)cc1 | 122 °C
CC(=O)C1CCC2C3CCC4CC(=O)CCC4(C)C3C(O)CC12C (stereo not drawn) | 227 to 233 °C
COC(=O)COc1ccc(C(=O)CN(C)C(=O)c2ccc(C(=N)N)cc2)cc1OCC(=O)OC | 177 to 178 °C
O=C(Oc1c(F)c(F)c(F)c(F)c1F)[C@H]1CCC(=O)N1C(=O)OCc1ccccc1 | 81 to 82 °C
OCc1cc2ccccc2c(-c2ccccc2)c1CO | 150 °C
O=C(NCc1ccc(Cl)cc1)c1cn(N2CCCCC2)c2ccc(CN3CCOCC3)cc2c1=O | 161 to 164 °C
CCCn1c(=O)c2c(NC)n[nH]c2n(CCc2ccccc2)c1=O | 256 to 258 °C
N#Cc1nc2ccccc2[nH]1 | 268 °C
Cc1oc(-c2ccccc2)nc1CCC(=NO)c1ccc(CCCC2OC(=O)NC2=O)cc1 (stereo not drawn) | 185 to 186 °C
CSCCOc1ccc(/C=C(\C)c2ccc3c(c2)C(C)(C)CCC3(C)C)cc1 | 94 to 96 °C
COCCNC(=O)C1CCC(Nc2ncc3ncnc(Nc4ccc(F)c(Cl)c4)c3n2)CC1 (stereo not drawn) | 243 to 246 °C
CCCCCCCCCCCCCCCCC(O)CN (stereo not drawn) | 75.2 to 76.5 °C
CCOC(=O)C1=C(N)NC(N)=C(C(=O)OC(C)C)C1c1ccccc1 (stereo not drawn) | 170 °C
COC(=O)c1ccc2nc3n(c(=O)c2c1)CCC3=Cc1ccccc1C | 181 to 183 °C
Fc1ccc(Cn2c(NC3CCN(C4CCCN(Cc5ccccc5)C4)CC3)nc3ccccc32)cc1 (stereo not drawn) | 175 °C
Cc1c(C)c2c(c(C)c1O)CCC(C)(CCc1ccccc1)O2 (stereo not drawn) | 96 to 98 °C
O=C(NCCOc1cc(-c2ccccc2)on1)c1ccccc1 | 129 to 130 °C

SMILES | melting point
COc1ccc2c(c1)CCC(C(=O)Cl)C2 (stereo not drawn) | 162 to 164 °C
CCCCOC(=O)c1ccccc1-c1ccc(Cn2c(CCC)nc(C(C)(C)O)c2C(=O)OCOC(=O)OC(C)C)cc1 | 85 to 87 °C
OC(CN1CCNC1=S)c1cc(Cl)cc(Cl)c1 (stereo not drawn) | 158 °C
CCc1nc(/C=C/c2cn(-c3ccccc3)nc2OCc2ccc(OCc3nc(-c4cccc(-c5nnn[nH]5)c4)oc3C)c(OC)c2)cs1 | 144 to 147 °C
N#CC1(CCc2ccccc2)CCCCN1C(=O)c1ccccc1 (stereo not drawn) | 65 to 67 °C
CN1CCN(c2cccc3c2C[C@H](NC(=O)c2ccc(OS(C)(=O)=O)cc2)CC3)CC1 | 199 to 200 °C
CC(C)(C)COC(=O)COc1ccc(C(=O)CBr)cc1 | 85 to 87 °C
CC(C)(C)OC(=O)N1CC=C(c2cnc(COc3ccc(S(C)(=O)=O)cc3)cc2Cl)CC1 | 148 to 150 °C
CCCCOC(=O)[C@H]1CN(c2ccc3c(c2)sc(=O)n3CC)C(=O)O1 | 99 to 102 °C
COc1cc(NC(=O)OC(C)(C)C)c([N+](=O)[O-])cc1-c1ccc(F)cc1 | 250 °C
COC1CCc2[nH]c3ccccc3c2C1 (stereo not drawn) | 105 °C
COC(=O)C(NS(=O)(=O)c1ccc(-c2ccc(NC(=O)c3oc4cccc(C(O)CO)c4c3C)cc2)cc1)C(C)C (stereo not drawn) | 90 to 95 °C
ICCCn1c2ccccc2c2ccccc21 | 152 to 156 °C
Cc1cc([N+](=O)[O-])c(NCC(C)O)c([N+](=O)[O-])c1 (stereo not drawn) | 80 °C
CCOC(=O)c1c[nH]c2nc(SCC)c(F)cc2c1=O | 280 to 284 °C
Cn1cc(Br)cc(Nc2ccc(N3CCN(C(=O)OC(C)(C)C)CC3=O)cn2)c1=O | 130 to 132 °C
CCOC(=O)CCc1cn(CC(=O)N(C)CCc2ccccc2)c2ccc(OCc3ccccc3)cc12 | 81 to 83 °C
CCOc1nn(-c2c(Cl)cc(Cl)cc2Cl)c(N2C(=O)c3ccccc3C2=O)c1C(=O)c1ccccc1Cl | 215 to 216 °C
CN(C)c1ccc(C(=O)NC2CCN(C(c3ccccc3)c3ccccc3)CC2)c([N+](=O)[O-])c1 | 183 °C
CCOC(=O)C=CCOc1ccc(C23CC4CC(CC(C4)C2)C3)cc1 | 91 to 93 °C
CCCc1cccc2cc(C(=O)O)oc12 | 75 to 80 °C
N#CCOc1c(Br)cc(Br)cc1C=O | 125 to 130 °C
O=C1C2=CSCCN2C(=O)N1c1cccc(Cl)c1F | 118 to 120 °C
CC(C)C[C@@H](C(=O)OCc1ccccc1)N1C(=O)[C@@H](N2C(=O)OC[C@@H]2c2ccccc2)[C@H]1CCc1ccccc1 | 138 to 140 °C
CS(=O)(=O)c1ccc(Oc2ccc(Br)cc2)cc1 | 128 to 129 °C

SMILES | melting point
CN(C)Cc1cccc(C(F)(F)C(F)(F)c2ccccc2)c1CN | 71 to 83 °C
O=C1NCCNC1Cc1ccccc1 (stereo not drawn) | 92 to 93 °C
CC(C)c1cccc(C(C)C)c1NC(=NCc1cccc(CCl)c1)Nc1c(C(C)C)cccc1C(C)C | 122 to 124 °C
Clc1ccc(Oc2cc(Br)c(Cl)cc2OCc2ccccc2)c(Cl)c1 | 86 to 88 °C
CCCn1nc2c(N)nc3ccccc3c2c1CCNC(=O)CC | 184 to 185 °C
O=[N+]([O-])c1cc(F)c(N2CCNCC2)cc1Cl | 91.5 °C
CC(C)(C)OC(=O)NCc1cccc(C(=O)OCC#N)c1O | 144 to 146 °C
Cn1cc(-c2ccccc2)c(=O)c(-c2cc(Br)ccc2F)c1 | 148 to 150 °C
O=Cc1cccn1-c1ccc(F)cc1 | 82 to 83 °C
Cc1c(NC(=O)CC(C)(C)C)cc2c(c1C)OC(C)(C)C2c1ccc(C(C)C)cc1 (stereo not drawn) | 172 to 173 °C
Cc1nc2cc3c(cc2c(=O)[nH]1)C(N(C)c1ccc(C(=O)NC(CCc2nnn[nH]2)C(=O)O)c(F)c1)CC3 (mixture of isomers) | 203 to 205 °C
CCc1cc(CC)nc(S)n1 | 82 to 84.5 °C
CC1(C)C2=C(Cl)C(=O)C(Cl)=CC2=Nc2ccc(O)cc21 | < 250 °C
COc1ccc2c(c1)c(-c1cc3c(OC)ccnc3[nH]1)cn2C | 288 to 289 °C
Brc1cccc(C2Cc3cnc(Nc4ccc(CCNCCN5CCCC5)cc4)nc3-c3ccccc32)c1 (stereo not drawn) | 83 to 85 °C
O=C(NC/C=C/c1ccccc1)c1cccs1 | 110 °C
CCOC(=O)C(=O)Nc1cccc([N+](=O)[O-])c1C#N | 111 to 113 °C
CC(N(O)C(N)=O)C1(OCc2nc3ccccc3s2)C=CC(c2ccccc2)=CC1 (stereo not drawn) | 190 to 191 °C
Cc1cc(C)n(-c2nc(Nc3ccc(-c4ccccc4)cc3)c3ccccc3n2)n1 | 268 to 270 °C
CCN(C(=O)N1CCN(c2cc(OC)cc(OC)c2)CC1)c1cc2ccccc2nc1OC | 118 to 120 °C
O=C(NC1CCN(CCCc2ccc(Cl)cc2)C1)C12CC3CC(CC(C3)C1)C2 (stereo not drawn) | 117 to 119 °C
COc1c(C)c(C)c(OC)c(Cn2ccnc2)c1C | 82 to 83 °C
O=Cc1ccnc2c(NC(=O)c3c(Cl)cccc3Cl)cccc12 | 239 °C
